According to paper PMC10235687, “Venetoclax is a potent hepsin inhibitor that reduces the metastatic and prothrombotic phenotypes of hepsin-expressing colorectal cancer cells” (Frontiers in Molecular Biosciences, 2023):
pIC50: −log10 of the molar value.

Molecular target: T1, Hepsin (Homo sapiens, UniProt P05981)
T1 construct: gene HPN; Recombinant hepsin (R&D Systems)
Assay: Fluorogenic protease assay with recombinant hepsin ([…]) and BOC-Gln-Arg-Arg-AMC ([…]), pH […] h incubation with drug
Assay type: biochemical

T1 sequence (P05981 45-162 limits assumed): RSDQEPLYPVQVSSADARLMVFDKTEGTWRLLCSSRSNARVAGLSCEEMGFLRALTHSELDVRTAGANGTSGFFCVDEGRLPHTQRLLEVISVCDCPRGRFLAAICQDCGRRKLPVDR
T1 sequence (P05981 163-417 limits assumed): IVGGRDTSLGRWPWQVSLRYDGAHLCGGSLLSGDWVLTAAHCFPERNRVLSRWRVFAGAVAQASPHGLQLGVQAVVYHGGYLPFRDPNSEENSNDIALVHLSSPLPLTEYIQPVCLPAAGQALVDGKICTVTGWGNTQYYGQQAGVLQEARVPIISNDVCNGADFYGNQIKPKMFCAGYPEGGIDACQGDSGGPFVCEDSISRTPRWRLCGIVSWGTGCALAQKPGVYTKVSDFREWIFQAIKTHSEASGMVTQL

CC1(C)CCC(CN2CCN(c3ccc(C(=O)NS(=O)(=O)c4ccc(NCC5CCOCC5)c([N+](=O)[O-])c4)c(Oc4cnc5[nH]ccc5c4)c3)CC2)=C(c2ccc(Cl)cc2)C1 [Venetoclax] was tested, and the pIC50 was 6.32.
